This note sets out measurements from patent EP2476670A1, “Stable solid salts of ambrisentan” (Zentiva, K.S., priority 2011, dated 2012).

Structures can show the parent of a compound that is named as a salt. Where two headings read alike, the source gives them in different places.

Series [1] can be described thus: Solubility of ambrisentan solid forms in water at 25 °C. Type of series: physicochemical. Conditions: approximate values. As to the method:
Solubility of all the salts are considerably higher compared to solubility of ambrisentan in the salt free form. Table. 1 Solubility of ambrisentan solid forms in water at 25 °C

The nature of series [2]: pKa of the ionisable groups of ambrisentan. Format: physicochemical.

`COC(c1ccccc1)(c1ccccc1)[C@H](Oc1nc(C)cc(C)n1)C(=O)O` [Ambrisentan tert-butylammonium salt, ambrisentan tert-butylammonium salt] showed a Solubility in series [1] of over 6000 µg/mL.

In the case of `COC(c1ccccc1)(c1ccccc1)[C@H](Oc1nc(C)cc(C)n1)C(=O)O` [Ambrisentan (Form R), (S)-2-(4,6-dimethylpyrimidin-2-yloxy)-3-methoxy-3,3-diphenylpropanoic acid], the Solubility result in series [1] is “∼ 0.05 mg/ml”. For the same compound, the pKa in series [2] (read-out: pKa of nitrogen in pyrimidine ring) was 2.98 ± 0.3; in series [2] (read-out: pKa of the carboxylic group), 0.93 ± 0.1.

With `COC(c1ccccc1)(c1ccccc1)[C@H](Oc1nc(C)cc(C)n1)C(=O)O` [Ambrisentan sodium salt (amorphous), ambrisentan sodium salt], the Solubility in series [1] (sodium salt) is over 10000 µg/mL.

Turning to `COC(c1ccccc1)(c1ccccc1)[C@H](Oc1nc(C)cc(C)n1)C(=O)O` [Ambrisentan sodium salt (crystalline), ambrisentan sodium salt], the Solubility in series [1] (sodium salt) is over 5000 µg/mL.

For the compound `COC(c1ccccc1)(c1ccccc1)[C@H](Oc1nc(C)cc(C)n1)C(=O)O` [Ambrisentan phosphate salt, ambrisentan phosphate salt], the Solubility entry in series [1] (phosphate salt) was “∼ 0.1 mg/ml”.
